From ChEMBL document CHEMBL5120789, “Aspulvins A-H, Aspulvinone Analogues with SARS-CoV-2 Mpro Inhibitory and Anti-inflammatory Activities from an Endophytic Cladosporium sp” (J Nat Prod, 2022)
Calls of active or inactive are those of the source. The rule behind the calls is not given here.

Legend:
J774.1 [1] = test: Anti-inflammatory activity against mouse J774A.1 macrophage assessed as reduction in LPS-induced LDH release at 10 uM incubated for 1 hr in presence of nigericin by LDH assay; format: functional, cell-based
J774.1 [2] = test: Anti-inflammatory activity against mouse J774A.1 macrophage assessed as reduction in LPS-induced LDH release incubated for 1 hr in presence of nigericin by LDH assay; format: functional, cell-based; conditions: J774.1, 1 h
[3] = target: Replicase polyprotein 1ab (Severe acute respiratory syndrome coronavirus 2) (UniProt P0DTD1); test: Inhibition of SARS-CoV-2 MPro at 10 uM incubated for 5 mins by FRET assay
J774.1 [4] = test: Anti-inflammatory activity against mouse J774A.1 macrophage assessed as reduction in LPS-induced IL-1beta maturation at 0.625 to 2.5 uM incubated for 1 hr in presence of nigericin by Western blot analysis; format: functional, cell-based; conditions: dose 0.625-2.5 µM
J774.1 [5] = test: Anti-inflammatory activity against mouse J774A.1 macrophage assessed as reduction in LPS-induced cleaved casp-1 expression at 0.625 to 2.5 uM incubated for 1 hr in presence of nigericin by Western blot analysis; format: functional, cell-based; conditions: dose 0.625-2.5 µM
J774.1 [6] = test: Anti-inflammatory activity against mouse J774A.1 macrophage assessed as reduction in LPS-induced pyroptosis cells at 0.625 to 2.5 uM incubated for 1 hr in presence of nigericin by PI/Hoechst 33342 staining based inverted fluorescence microscopic analysis; format: functional, cell-based; conditions: dose 0.625-2.5 µM, DDE = dose-dependent effect

Row | SMILES | inhibition (J774.1 [1]) | IC50 (J774.1 [2]) | inhibition [3] | Activity (J774.1 [4]) | Activity (J774.1 [5]) | Activity (J774.1 [6])
1 | CC(C)=CCc1cc(/C=C2\OC(=O)C(c3ccc(O)cc3O)=C2O)ccc1O | Active | 2.4 µM | Active |  |  | 
2 | CC(C)=CCc1cc(/C=C2\OC(=O)C(c3cc(CCC(C)(C)O)c(O)cc3O)=C2O)ccc1O | Active | 3.3 µM | Active |  |  | 
3 | CC(C)=CCc1cc(C2=C(O)/C(=C/c3ccc4c(c3)CC(O)C(C)(C)O4)OC2=O)c(O)cc1O (stereo not given) | Active | 2.8 µM | Active |  |  | 
4 | CC(C)(O)C(O)Cc1cc(/C=C2\OC(=O)C(c3cc4c(cc3O)OC(C)(C)C(O)C4)=C2O)ccc1O (stereo not given) |  |  | Active |  |  | 
5 | CC(C)=CCc1cc(C2=C(O)/C(=C/c3ccc(O)c(CCC(C)(C)O)c3)OC2=O)c(O)cc1O | Active | 3.1 µM | Active |  |  | 
6 | CC(C)=CCc1cc(/C=C2\OC(=O)C(c3cc(CC=C(C)C)c(O)cc3O)=C2O)ccc1O | Active | 3 µM | Active |  |  | 
7 | CC(C)=CCc1cc(C2=C(O)/C(=C/c3ccc4c(c3)C[C@H](C(C)(C)O)O4)OC2=O)c(O)cc1O | Active | 4.9 µM | Active |  |  | 
8 | CC(C)=CCc1cc(/C=C2\OC(=O)C(c3cc4c(cc3O)OC(C)(C)C(O)C4)=C2O)ccc1O (stereo not given) | Active | 4.2 µM | Active |  |  | 
9 | CC(C)(O)C1Cc2cc(/C=C3\OC(=O)C(c4cc5c(cc4O)OC(C)(C)C(O)C5)=C3O)ccc2O1 (stereo not given) | Active | 0.7 µM | Active | Active | Active | Dde
10 | CC(C)=CCc1cc(C2=C(O)/C(=C/c3ccc(O)c(CC(O)C(C)(C)O)c3)OC2=O)c(O)cc1O (stereo not given) | Active | 7.4 µM | Active |  |  | 
11 | CC1(C)Oc2ccc(/C=C3\OC(=O)C(c4cc5c(cc4O)OC(C)(C)C(O)C5)=C3O)cc2CC1O (stereo not given) |  |  | Active |  |  | 
12 | CC(C)=CCc1cc(/C=C2\OC(=O)C(c3cc4c(cc3O)OC(C)(C)CC4)=C2O)ccc1O | Active | 0.8 µM | Active |  |  | 
